According to PMC12566971, “Polyprenylated Acylphloroglucinols from Hypericum rochelii and Hypericum olympicum—Cytotoxic Effects on Non-Tumorigenic Cell Lines and Antibacterial Potential” (Pharmaceuticals, 2025):
Values after ≈ are worked out from the molar mass of the structure shown. Values joined by “and” are separate entries in the source; they are usually repeats but may differ in a detail not shown here. Identical values can stand only once. Like-named read-outs stand apart in the source and are kept apart here.

Tests used:
[1] = system: Lactiplantibacillus plantarum; test: MIC evaluation on lactobacilli (broth microdilution); type: cell-based
Description: (§1) The MIC and MBC assessment on the pathogenic bacteria and the candidate probiotic lactic acid bacteria was carried out by the broth microdilution assay (BMD) and the agar plate assay, respectively, as described in [4]. The metabolic (dehydrogenase) activity of the lactic acid bacteria was assessed as described in [4]. Lactobacilli of different origins from the collection of Laboratory “Lactic Acid Bacteria and Probiotics”, the Stephan Angeloff Institute of Microbiology, Bulgarian Academy of Sciences (Sofia, Bulgaria), were selected (Table 13). The strains had been assessed previously, as candidate probiotics, according to the in vitro criteria recommended by the EFSA and the WHO guidelines. They were stored at −20 °C in MRS broth (Merck Group, Darmstadt, Germany) supplemented with 20% v/v sterile glycerol. Prior to the experiments, lactobacilli were subcultured twice in MRS broth (GM369, HiMedia, Mumbai, India) at 37 °C. An overnight exponential-phase culture (5% v/v inoculum) was used for the tests.

[2] = system: Limosilactobacillus fermentum; test: as above; type: cell-based
Description: as §1

HEPG2 = test: MTT assay for cytotoxicity; type: cell-based, human; settings: for IC50: Homo sapiens, HepG2
Description: (§2) The MTT assay was performed according to Annex C, ISO 10993-5 [56] as in [116]. The panel of non-tumorigenic cell lines consisted of one murine (CCL-1 fibroblasts, which are recommended as a standard for cytotoxicity evaluation in Annex C of ISO 10993-5 [56]) and four human cell lines—HaCaT (immortalized epidermal keratinocytes), HGF (gingival fibroblasts), HEK-293 (embryonic cells from kidney epithelium), and HEPG2 (hepatoblastoma). Although technically a cancer cell line, HEPG2 is non-tumorigenic and retains many hepatocyte-related features in its proteome and a high degree of morphological and functional differentiation, also being a stage one hepatoblastoma.
(§3) CCL-1 was purchased from ATCC and HaCaT and HGF were bought from CLS Cell Lines Service (GmbH, Eppelheim, Germany). HEK-293 and HEPG2 were obtained from DSMZ. The cell culture medium for HaCaT and HEPG2 was Dulbecco’s Modified Eagle Medium (DMEM) with 4.5 g/L glucose (DMEM-HA). For HGF it was DMEM/F-12 (DMEM-12-A, a 1:1 mixture of DMEM and Ham’s F-12 medium). The cell medium for CCL-1 and HEK-293 was Eagle’s Minimum Essential Medium (MEM) (MEM-A). Ten percent heat-inactivated fetal bovine serum (FBS) was added to all media but to the one for the CCL-1 cells, to which 10% heat-inactivated horse serum was added. All media were supplemented with 2 mM L-glutamine and Penicillin/Streptomycin (Pen/Strep, 100×). The cell culture media, sera, and additives were from Capricorn Scientific (Düsseldorf, Germany).
(§4) GraphPad Prism software version 9 (GraphPad Software Inc., San Diego, CA, USA) was used to calculate the IC50 values from the MTT assays as in [116], as well as the MTC values, and the ELISA standard curves. The MTC values are, according to ISO 10993-5, the maximum concentration at which at least 70% of the cells are viable (nonlin fit, range).

HaCaT = test: MTT assay for cytotoxicity; type: cell-based, human; settings: for IC50: Homo sapiens, HaCaT
Description: as §2, §3, §4

CCL-1 = test: MTT assay for cytotoxicity; type: cell-based, murine
Description: as §2, §3, §4

S. aureus biofilm = test: Biofilm assay; type: cell-based, Staphylococcus aureus
Description: The biofilm assay was performed according to the protocol of Stepanović [138], as already described.

icaA gene in MRSA = test: Real-time PCR, relative gene expression; type: cell-based, Staphylococcus aureus; settings: control = 1
Description: (§5) The preparation of the samples for the RNA isolation was carried out as for the biofilm assay. RNA from the treated samples and the untreated positive MRSA control was isolated with the help of the Environmental DNA & RNA Purification Kit (E3572, EURx Ltd., Gdańsk, Poland). […] A total of 50 µL lysozyme (20 mg/mL) from chicken egg white (L6876, Merck Sigma-Aldrich) and 10 µL lysostaphin (L4402, Merck Sigma-Aldrich) from Staphylococcus staphylolyticus (200 U/mL) were added per sample. […] The samples, being bacterial, were subjected to cDNA synthesis using random hexamer primers and reverse transcriptase enzymes. The obtained cDNA samples were stored at −80 °C and used for real-time PCR.
(§6) For normalization of the data, the rho gene was used as a housekeeping gene.

icaD gene in MRSA = test: Real-time PCR, relative gene expression; type: cell-based, Staphylococcus aureus; settings: control = 1
Description: as §5, §6

CCL-1 cell line = test: Live-cell imaging with Hoechst for apoptosis detection; type: cell-based; settings: low MIC doses
Description: Cell suspension was seeded in the same manner as for MTT, but 50 µL per well in 96-well clear bottom plates. […] For the hypertonic buffer, the exposure time was 2 h, and the cells were plated at twice the concentration as for the MTT and cytopathic tests in order to comply with the kit protocol.
At least two wells were seeded as replicates, and at least two photographs were taken for all samples and treatments, stained with dyes or not.

Staphylococcus aureus = settings: ref [4],[29]; cited from earlier work
[3] = system: Methicillin-Resistant S. aureus (MRSA); settings: ref [4],[29]; cited from earlier work
Enterococcus faecalis = settings: ref [4],[29]; cited from earlier work
MRSA biofilm = settings: assessed and published previously, ref [29], cited from earlier work
[4] = at least 70% of cells viable, ISO 10993-5

CC(C)=CCCC1(C)C(CC=C(C)C)CC2C(=O)C1(C(=O)C(C)C)C(=O)C(CC=C(C)C)=C2O (stereo not drawn) [Olympiforin B]
MIC ([1]; strain Lpl 11, read-out: MIC, Lpl 11): 2 µg/mL (≈ 4.27 µM) | MIC ([1]; strain Lpl 25, read-out: MIC, Lpl 25): 2 µg/mL (≈ 4.27 µM) | MIC ([1]; strain Lpl.AC11S, read-out: MIC, Lpl.AC11S): 2 µg/mL (≈ 4.27 µM) | MIC ([1]; strain Lpl.L6, read-out: MIC, Lpl.L6): 4 µg/mL (≈ 8.53 µM) | MIC ([2]; strain Lf53, read-out: MIC, Lf53): 2 µg/mL (≈ 4.27 µM) | MIC ([2]; strain Lf98, read-out: MIC, Lf98): 2 µg/mL (≈ 4.27 µM) | IC50 (HEPG2; MTT assay): 4.5 µg/mL | IC50 (HEPG2; converted to µM): 9.6 µM | Maximum tolerated concentration (MTC), HEPG2 (HEPG2; [4]): 1.54 µg/mL | IC50 (HaCaT; MTT assay): 1.71 µg/mL | IC50 (HaCaT; converted to µM): 3.65 µM | Maximum tolerated concentration (MTC), HaCaT (HaCaT; concentration at which at least 70% of cells are viable, ISO 10993-5): 0.52 µg/mL | IC50 (CCL-1; Mus musculus, MTT assay): 5.5 µg/mL (≈ 11.7 µM) | Maximum tolerated concentration (MTC), CCL-1 (CCL-1; [4]): 4.79 µg/mL | IC50 (S. aureus biofilm; Staphylococcus aureus, read-out: Median Biofilm Inhibitory Concentration (MBIC50), S. aureus): 0.07 µg/mL and 150 nM | Minimum Biofilm Inhibitory Concentration (MBIC), S. aureus (S. aureus biofilm; no visible biofilm): 1 (MIC) µg/mL | Relative gene expression, icaA (icaA gene in MRSA; 1/8 × MIC): 0.37 | Relative gene expression, icaA (icaA gene in MRSA; 1/16 × MIC): 0.53 | Relative gene expression, icaA (icaA gene in MRSA; 1/32 × MIC): 0.28 | Relative gene expression, icaD (icaD gene in MRSA; 1/8 × MIC): 0.41 | Relative gene expression, icaD (icaD gene in MRSA; 1/16 × MIC): 0.82 | Relative gene expression, icaD (icaD gene in MRSA; 1/32 × MIC): 0.95 | Nuclear and DNA condensation (signs of apoptosis) (CCL-1 cell line): did not cause any nuclear and DNA condensation | MIC on bacteria, S. aureus (Staphylococcus aureus): 1 µg/mL (≈ 2.13 µM) | MIC on bacteria, MRSA [3]: 1 µg/mL (≈ 2.13 µM) | MIC on bacteria, E. faecalis (Enterococcus faecalis): 4 µg/mL (≈ 8.53 µM) | Median Biofilm Inhibitory Concentration (MBIC50), MRSA (MRSA biofilm): 0.05 (0.03 to 0.07) µg/mL | Minimum Biofilm Inhibitory Concentration (MBIC), MRSA (MRSA biofilm): 0.5 (1/2 × MIC) µg/mL and 1.07 µM | Minimum Biofilm Inhibitory Concentration (MBIC), MRSA (MRSA biofilm; listed as olympiforin B): 0.5 µg/mL | IC50 (MRSA biofilm; read-out: Median Biofilm Inhibitory Concentration (MBIC50), MRSA): 0.12 µM
